Entries after “also recorded” stand apart in the source; their conditions may differ.
Columns and labels:
hNav1.1 = target: T1, hNav1.1 (Homo sapiens, UniProt P35498); experiment: Two-electrode voltage-clamp recording from Xenopus oocytes expressing hNav1.1 with β1; assay type: cell-based; details: for effect on hNav1.1 opening / gating (in words): G/Gmax vs DMSO control; for effect on hNav1.1 persistent current (in words): end of a 50 ms test pulse; for depolarizing shift in hNav1.1 channel activation voltage: vs DMSO control; for hNav1.1 Inactivation (V1/2), steady-state inactivation / hNav1.1 Activation (V1/2): 100 μM drug, Xenopus oocytes, DMSO 1% or less; for hNav1.1 Activation (V1/2): at least one hour incubation, ** = p<0.005 vs DMSO
T1 construct: host or cells: Xenopus oocytes (cRNA injection)

hNav1.2 = target: T2, hNav1.2 (Homo sapiens, UniProt Q99250); experiment: Two-electrode voltage-clamp recording from Xenopus oocytes expressing hNav1.2 with β1; assay type: cell-based; details: for effect on hNav1.2 opening / tested gating parameters (in words): 100 μM, vs DMSO control; for hNav1.2 Activation (V1/2) / hNav1.2 Inactivation (V1/2), steady-state inactivation: 100 μM drug, Xenopus oocytes, DMSO 1% or less
T2 construct: host or cells: Xenopus oocytes (cRNA injection)

hNav1.6 = target: T3, hNav1.6 (Homo sapiens, UniProt Q9UQD0); experiment: Two-electrode voltage-clamp recording from Xenopus oocytes expressing hNav1.6 with β1; assay type: cell-based; details: for hNav1.6 Activation (V1/2) / hNav1.6 Inactivation (V1/2), steady-state inactivation: 100 μM drug, Xenopus oocytes, DMSO 1% or less
T3 construct: host or cells: Xenopus oocytes (cRNA injection)

hNav1.3 = target: T4, hNav1.3 (Homo sapiens, UniProt Q9NY46); experiment: Two-electrode voltage-clamp recording from Xenopus oocytes expressing hNav1.3 with β1; assay type: cell-based; details: for effect on hNav1.3 opening / tested gating parameters (in words): 100 μM, vs DMSO control; for hNav1.3 Activation (V1/2) / hNav1.3 Inactivation (V1/2), steady-state inactivation: 100 μM drug, Xenopus oocytes, DMSO 1% or less
T4 construct: host or cells: Xenopus oocytes (cRNA injection)

[1] = test system: flurothyl-induced generalized seizures in male Cr1:CF1 mice; experiment: Flurothyl seizure induction; assay type: in vivo; details: 75 mg/kg ip, vs vehicle, p=0.6
Procedure: (§1) Animal husbandry and drug administration. Male Cr1:CF1 mice (10-12 weeks old, Charles River) were housed under a 12 hour light-dark cycle with free access to food and water and all experiments were carried out between 10 am and 4 pm. 1-[phenyl-methyl]-1H-1,2,3-triazole-4-carboxamide-5-methyl (Compound B) (Sigma Aldrich) was suspended in a 40% solution of cyclodextrin (Sigma Aldrich) in sterile saline (0.9%) and 15 minutes prior to each seizure induction paradigm, 75 mg/kg of compound B was administered via intraperitoneal injection (ip) injection. Vehicle treated animals were similarly administrated 40% cyclodextrin and served as the controls for each experiment. The Emory University Institutional Animal Care and Use Committee approved all experimental protocols involving mice.
Flurothyl Seizure induction. Latencies to flurothyl-induced seizures were determined as previously described (Neurobiol Dis 49C, 211-220 (2012)). Briefly, flurothyl (2,2,2-trifluroethylether; Sigma Aldrich) was dispensed at a rate of 20 μl/minute into a Plexiglas chamber and latencies to three behavioral phenotypes were compared between vehicle-treated and compound B-treated (75 mg/kg) mice (n=12 per group): 1) the first myoclonic jerk, 2) a generalized tonic-clonic seizure, and 3) a generalized tonic-clonic seizure with tonic extension. […]

[2] = test system: picrotoxin-induced generalized seizures in male Cr1:CF1 mice; experiment: Picrotoxin seizure induction; assay type: in vivo
Procedure: as §1
Seizure induction paradigms and analyses. Picrotoxin seizure induction—15 minutes prior to i.p. injection of picrotoxin (10 mg/kg, Sigma Aldrich), mice were administered vehicle or compound B (n=12 per group). Latencies to the first myoclonic jerk, forelimb clonus, and generalized tonic-clonic seizure were compared between compound B and vehicle-treated mice. The myoclonic jerk is characterized by a sudden jerk of the upper body whereas forelimb clonus involves rapid movement of the forelimbs for at least 5s. Finally, the generalized tonic-clonic seizure involves the loss of postural control with rapid movement of the limbs for at least 5s.
Statistical analysis. A Student's t-test was used to identify statistically significant differences in latencies between vehicle- and compound B-treated groups for each seizure phenotype following administration of flurothyl and picrotoxin. […] All data are presented as the mean±s.e.m.; p values <0.05 were considered significant.

[3] = test system: 6 Hz (17 mA) induced partial seizures in male Cr1:CF1 mice; experiment: 6 Hz psychomotor seizure induction; assay type: in vivo; details: 75 mg/kg ip, p<0.0001
Procedure: as §1
6 Hz psychomotor seizure induction. Topical anesthetic (0.5% tetracaine hydrochloride ophthalmic solution) was applied to the cornea 30 minutes before testing. Fifteen minutes prior to seizure induction, mice were administrated vehicle or compound B (n=12 per group). Each mouse was manually restrained and corneal stimulation (0.2 ms pulse, 6 Hz, 3s) was performed at a current intensity of 17 mA (ECT Unit 57800; Ugo Basile, Comerio Italy). […]

α1/β2/γ2 GABAA receptor = target: T5, α1/β2/γ2 GABAA receptor (Homo sapiens, UniProt P14867+P18507+P47870); experiment: GABAA receptor activation in oocytes held at −70 mV; assay type: cell-based; details: 100 μM; 5 μM muscimol as activator control
T5 construct: expressed in transfected cells; host or cells: oocytes (heterologous expression inferred)
Excerpt: Oocytes were kept at −70 mV throughout the experiment.

Solubility of rufinamide = assay type: physicochemical
[4] = 75 mg/kg ip 15 minutes prior to picrotoxin 10 mg/kg, vs vehicle

T5 sequence (P14867 28-456): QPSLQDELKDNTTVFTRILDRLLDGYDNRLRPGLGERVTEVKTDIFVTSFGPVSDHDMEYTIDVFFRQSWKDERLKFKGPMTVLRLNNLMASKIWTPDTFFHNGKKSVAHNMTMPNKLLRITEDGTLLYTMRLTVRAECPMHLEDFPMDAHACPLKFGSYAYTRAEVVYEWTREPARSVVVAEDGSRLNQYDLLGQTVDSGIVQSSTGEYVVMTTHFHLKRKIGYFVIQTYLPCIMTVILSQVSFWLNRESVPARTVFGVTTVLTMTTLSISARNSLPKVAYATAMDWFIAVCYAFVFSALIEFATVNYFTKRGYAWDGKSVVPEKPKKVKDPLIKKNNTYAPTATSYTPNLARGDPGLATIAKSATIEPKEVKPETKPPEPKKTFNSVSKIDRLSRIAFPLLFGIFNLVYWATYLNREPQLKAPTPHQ
T5 sequence (P47870 25-512 limits assumed): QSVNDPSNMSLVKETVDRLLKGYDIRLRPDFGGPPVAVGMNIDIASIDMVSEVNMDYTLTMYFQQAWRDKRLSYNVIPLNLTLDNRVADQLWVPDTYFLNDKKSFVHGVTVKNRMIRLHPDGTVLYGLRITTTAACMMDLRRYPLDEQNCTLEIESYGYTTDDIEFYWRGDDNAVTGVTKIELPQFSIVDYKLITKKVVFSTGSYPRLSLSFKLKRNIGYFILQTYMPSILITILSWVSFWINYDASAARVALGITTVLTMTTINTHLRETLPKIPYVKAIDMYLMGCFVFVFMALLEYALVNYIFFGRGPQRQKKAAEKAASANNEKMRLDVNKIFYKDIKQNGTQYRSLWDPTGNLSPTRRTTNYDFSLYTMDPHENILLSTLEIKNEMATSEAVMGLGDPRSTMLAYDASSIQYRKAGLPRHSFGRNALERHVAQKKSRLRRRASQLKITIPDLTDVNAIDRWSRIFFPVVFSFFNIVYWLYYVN
T5 sequence (P18507 40-475): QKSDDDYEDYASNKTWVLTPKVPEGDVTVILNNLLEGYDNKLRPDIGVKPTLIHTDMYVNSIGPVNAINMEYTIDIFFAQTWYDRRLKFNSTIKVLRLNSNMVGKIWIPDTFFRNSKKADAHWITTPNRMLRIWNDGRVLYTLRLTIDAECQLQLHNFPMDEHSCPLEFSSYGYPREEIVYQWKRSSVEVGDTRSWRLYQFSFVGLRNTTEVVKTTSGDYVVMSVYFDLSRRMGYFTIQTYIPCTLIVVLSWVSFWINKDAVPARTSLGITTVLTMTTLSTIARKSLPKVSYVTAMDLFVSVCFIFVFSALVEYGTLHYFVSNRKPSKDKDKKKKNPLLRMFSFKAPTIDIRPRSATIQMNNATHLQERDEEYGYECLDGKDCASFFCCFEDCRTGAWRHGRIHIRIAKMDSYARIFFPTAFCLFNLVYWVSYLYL

## CCc1c(C(N)=O)nnn1Cc1ccccc1 [Compound F, 1-(phenylmethyl)-1H-1,2,3-triazole-4-carboxamide-5-ethyl]
hNav1.1; 100 μM
  effect on hNav1.1 steady-state inactivation (in words): does not influence
  effect on hNav1.1 opening / gating (in words): inhibits hNav1.1 opening
  effect on hNav1.1 persistent current (in words): does not influence
  depolarizing shift in hNav1.1 channel activation voltage: ~+12 mV
hNav1.2
  effect on hNav1.2 opening / tested gating parameters (in words): not significant
hNav1.6; 100 μM, vs DMSO control
  effect on hNav1.6 opening / tested gating parameters (in words): not significant
hNav1.3
  effect on hNav1.3 opening / tested gating parameters (in words): not significant

## OCc1cn(Cc2cccc(F)c2)nn1 [Compound C, 1-[(3-fluorophenyl)methyl]-1H-1,2,3-Triazole-4-hydroxymethyl]
hNav1.1
  hNav1.1 Inactivation (V1/2), steady-state inactivation: −49.2 ± 0.6 mV
  hNav1.1 Activation (V1/2): −38.4 ± 1.3 mV
hNav1.1; 100 μM
  effect on hNav1.1 opening / gating (in words): does not influence hNav1.1 gating; also recorded: no longer affects hNav1.1 opening

## NC(=O)c1nnn(Cc2cccc(F)c2)c1N [Compound A, 1-[(3-fluorophenyl)methyl]-1H-1,2,3-Triazole-4-carboxamide-5-amine]
hNav1.1
  hNav1.1 Inactivation (V1/2), steady-state inactivation: −50.5 ± 1.2 mV
  hNav1.1 Activation (V1/2): −30.8 ± 1.0 mV
hNav1.1; 100 μM
  effect on hNav1.1 opening / gating (in words): clearly inhibit hNav1.1 opening
  effect on hNav1.1 persistent current (in words): neither of these compounds influences

## Cc1c(C(N)=O)nnn1Cc1ccccc1 [Compound B, 1-[phenyl-methyl]-1H-1,2,3-Triazole-4-carboxamide-5-methyl]
hNav1.1
  effect on entry or voltage-dependence of hNav1.1 slow inactivation (in words): do not influence
  hNav1.1 Inactivation (V1/2), steady-state inactivation: −49.4 ± 0.3 mV
  hNav1.1 Activation (V1/2): −27.4 ± 1.0 mV
hNav1.1; 100 μM
  effect on hNav1.1 opening / gating (in words): more efficaciously when compared to rufinamide; also recorded: clearly inhibit hNav1.1 opening
  effect on hNav1.1 persistent current (in words): do not affect persistent current
  depolarizing shift in hNav1.1 channel activation voltage: ~+11 mV
hNav1.1; oocytes expressing hNav1.1, Boltzmann fit
  Voltage-dependence of SI (V), V1/2 of hNav1.1 slow inactivation: −43.2 ± 1.3 mV
hNav1.1; oocytes expressing hNav1.1, single exponential fit
  Entry into SI (T), time constant of entry into hNav1.1 slow inactivation: 5.5 ± 0.4 s
hNav1.2
  hNav1.2 Activation (V1/2): −23.6 ± 1.1 mV
  hNav1.2 Inactivation (V1/2), steady-state inactivation: −53.6 ± 1.2 mV
  effect on hNav1.2 opening / tested gating parameters (in words): unaltered
[1]
  average latency to the MJ, flurothyl: comparable
hNav1.6
  hNav1.6 Activation (V1/2): −23.8 ± 1.9 mV
  hNav1.6 Inactivation (V1/2), steady-state inactivation: −62.6 ± 0.7 mV
hNav1.6; 100 μM, vs DMSO control
  effect on hNav1.6 opening / tested gating parameters (in words): unaltered
[2]; 75 mg/kg ip
  frequency of the behavioral seizures vs vehicle, picrotoxin: no difference
[2]; [4]
  average latency to forelimb clonus (FC), picrotoxin: no statistically significant differences
  average latency to the first myoclonic jerk (MJ), picrotoxin: no statistically significant differences
[3]
  severity of seizures vs vehicle (modified Racine scale), 6 Hz: dramatically less severe; also recorded: typically less severe
hNav1.3
  hNav1.3 Activation (V1/2): −25.8 ± 1.4 mV
  hNav1.3 Inactivation (V1/2), steady-state inactivation: −50.0 ± 0.8 mV
  effect on hNav1.3 opening / tested gating parameters (in words): unaltered
α1/β2/γ2 GABAA receptor
  activation of the α1/β2/γ2 GABAA receptor (in words): do not activate; also recorded: do not evoke inward GABAA-mediated currents

## NC(=O)c1cn(Cc2c(F)cccc2F)nn1 [Rufinamide, 1-[(2,6-difluorophenyl)methyl]-1H-1,2,3-Triazole-4-carboxamide, reference compound]
hNav1.1
  effect on entry or voltage-dependence of hNav1.1 slow inactivation (in words): do not influence
  hNav1.1 Inactivation (V1/2), steady-state inactivation: −47.8 ± 1.6 mV
  hNav1.1 Activation (V1/2): −30.6 ± 0.9 mV
hNav1.1; 100 μM
  effect on hNav1.1 opening / gating (in words): dramatic depolarizing shift; also recorded: inhibits hNav1.1 opening
  effect on hNav1.1 persistent current (in words): do not affect persistent current
hNav1.2
  hNav1.2 Activation (V1/2): −29.5 ± 1.2 mV
  hNav1.2 Inactivation (V1/2), steady-state inactivation: −57.7 ± 0.5 mV
  effect on hNav1.2 opening / tested gating parameters (in words): not inhibited
hNav1.6
  hNav1.6 Activation (V1/2): −28.1 ± 0.8 mV
  hNav1.6 Inactivation (V1/2), steady-state inactivation: −60.0 ± 0.7 mV
hNav1.6; 100 μM, vs DMSO control
  effect on hNav1.6 opening / tested gating parameters (in words): not inhibited; also recorded: not significant
Solubility of rufinamide; DMSO, organic solvent or mixture
  solubility: ≤ 9000 µg/mL
Solubility of rufinamide; water
  solubility in water: slightly soluble
hNav1.3
  hNav1.3 Activation (V1/2): −24.5 ± 2.4 mV
  hNav1.3 Inactivation (V1/2), steady-state inactivation: −52.6 ± 1.6 mV
  effect on hNav1.3 opening / tested gating parameters (in words): not inhibited
α1/β2/γ2 GABAA receptor
  activation of the α1/β2/γ2 GABAA receptor (in words): do not activate; also recorded: do not evoke inward GABAA-mediated currents

## COC(=O)c1nnn(Cc2c(F)cccc2F)c1C [Compound L, 1-[(2,6-difluorophenyl)methyl]-1H-1,2,3-triazole-carboxymethyl-5-methyl]
hNav1.1; 100 μM
  effect on hNav1.1 opening / gating (in words): much smaller compared to compound B
hNav1.6; 100 μM, vs DMSO control
  shift of midpoint of hNav1.6 channel availability (steady-state inactivation): ~−20 mV

## 1-[(2,6-difluorophenyl)methyl]-1H-1,2,3-triazole-carboxymethyl-5-methyl [Compound L]
hNav1.1; 100 μM
  effect on hNav1.1 opening / gating (in words): only slightly inhibits hNav1.1 opening
hNav1.2
  effect on hNav1.2 opening / tested gating parameters (in words): not significant
hNav1.6; 100 μM
  effect on hNav1.6 steady-state inactivation (in words): dramatically affect hNav1.6 steady-state inactivation
hNav1.3
  effect on hNav1.3 opening / tested gating parameters (in words): not significant

## NC(=O)c1nnn(Cc2ccc(F)cc2)c1N [Compound D, 1-[(4-fluorophenyl)methyl]-1H-1,2,3-Triazole-4-carboxamide-5-amine]
hNav1.1
  hNav1.1 Inactivation (V1/2), steady-state inactivation: −49.8 ± 1.6 mV
  hNav1.1 Activation (V1/2): −32.5 ± 2.3 mV
hNav1.1; 100 μM
  effect on hNav1.1 opening / gating (in words): not significant

Source: patent US9771335B2 (THE JOHNS HOPKINS UNIVERSITY, priority 2015, dated 2017)
